Patent US20150020916A1, “Antiperspirant Spray Devices and Compositions” (The Procter & Gamble Company, priority 2013, published 2015)

From the text: (§1) Solubility may be determined by measuring the amount of light transmittance (a light transmittance value) through a simple mixture of the non-volatile silicone fluid and liquid activation enhancer at the same weight/weight concentrations as in a final antiperspirant composition.
as §1, with “Solubility of a liquid activation enhancer in a non-volatile silicone” for “Solubility”, “(light” for “(a light”
The Spectronic Genesys 10 Vis utilizes a tungsten-halogen light source and has a spectral bandwidth of 5 nm, a wavelength range of 325 to 1100 nm, accuracy of ±1 nm and a repeatability of ±0.5 nm. Readouts include absorbance, transmittance and concentration. The spectrophotometer is set to 640 nm wavelength and the percent transmittance mode/readout. Polystyrene spectrometer cuvettes having a 1 cm optical light path and transmittance between ˜340 nm and ˜900 nm are used. One suitable example of a spectrometer cuvette is available from VWR International LLC under Catalog #97000-584 having a 2.5 to 4.5 ml capacity. The spectrophotometer is calibrated according to the manufacturer's instructions using a reference cuvette and composition comprised of just the non-volatile silicone fluid of interest. For example, if the test composition comprises 50 centistoke dimethicone and 15% w/w of isopropyl myristate, then the spectrometer is calibrated using a cuvette containing just 50 centistoke dimethicone. Sample cuvettes are filled sufficiently with a test composition of a non-volatile silicone fluid and liquid activation enhancer so that the light path of the spectrophotometer passes through the test composition in the cuvette. The sample cuvettes are shaken well just prior to taking a light transmittance reading.

Compound	light transmittance value	solubility in 50 centistoke dimethicone
CCCCCCCCCCCCCCCCCC(=O)OCCCC [butyl stearate]	about 100%	–
CCCCCCCCCCCCCC(C)C [isohexadecane]	about 100%	soluble
CCCCCCCCCCCCCC(=O)OC(C)C [isopropyl myristate]	about 101%	–
CCCCCCCCCCCCCCCC(=O)OC(C)C [isopropyl palmitate]	about 101%	–
CCCCCCCCCCC(CO)CCCCCCCC (centres unmarked) [octyldodecanol]	–	soluble in the 50 centistoke dimethicone at some (lower) concentrations
PPG-14 butyl ether	–	insoluble
mineral oil	–	soluble in 50 centistoke dimethicone at some (lower) concentrations
